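Where inhibition never reached the appropriate level, the endpoint shown equals the highest concentration tested. Otherwise, values were interpolated linearly from a five-concentration, 48-hour dose response in 96-well plates. Definition used: TGI = concentration required for complete inhibition of growth.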
Assays:
Assay in all cases: NCI-60 cell line screen, 48 h
HOP-92 NSCLC = system: HOP-92 NSCLC
NCI-H460 lung = system: NCI-H460 lung
HOP-18 NSCLC = system: HOP-18 NSCLC
SK-OV-3 ovarian = system: SK-OV-3 ovarian
HT29 colon = system: HT29 colon
DLD-1 colon = system: DLD-1 colon
HCT-15 colon = system: HCT-15 colon
ACHN renal = system: ACHN renal
UACC-257 melanoma = system: UACC-257 melanoma
U251 CNS = system: U251 CNS
CAKI-1 renal = system: CAKI-1 renal
HCC-2998 colon = system: HCC-2998 colon
786-0 renal = system: 786-0 renal
SK-MEL-5 melanoma = system: SK-MEL-5 melanoma
LOX IMVI melanoma = system: LOX IMVI melanoma
UO-31 renal = system: UO-31 renal
SNB-19 CNS = system: SNB-19 CNS
SK-MEL-28 melanoma = system: SK-MEL-28 melanoma
KM12 colon = system: KM12 colon
NCI-H23 lung = system: NCI-H23 lung
OVCAR-8 ovarian = system: OVCAR-8 ovarian
M14 melanoma = system: M14 melanoma
SR leukemia = system: SR leukemia
SF-539 CNS = system: SF-539 CNS
XF 498 CNS = system: XF 498 CNS
K-562 leukemia = system: K-562 leukemia
DMS 273 small cell lung = system: DMS 273 small cell lung
TK-10 renal = system: TK-10 renal
RXF-631 renal = system: RXF-631 renal
LXFL 529 NSCLC = system: LXFL 529 NSCLC
SNB-75 CNS = system: SNB-75 CNS
SW-620 colon = system: SW-620 colon
SN12C renal = system: SN12C renal
EKVX NSCLC = system: EKVX NSCLC
SF-268 CNS = system: SF-268 CNS
A549 NSCLC = system: A549 NSCLC
NCI-H226 lung = system: NCI-H226 lung
COLO 205 colon = system: COLO 205 colon
NCI-H522 lung = system: NCI-H522 lung
HCT-116 colon = system: HCT-116 colon
M19-MEL melanoma = system: M19-MEL melanoma
OVCAR-4 ovarian = system: OVCAR-4 ovarian
SF-295 CNS = system: SF-295 CNS
UACC-62 melanoma = system: UACC-62 melanoma
KM20L2 colon = system: KM20L2 colon
IGROV1 ovarian = system: IGROV1 ovarian
HOP-62 NSCLC = system: HOP-62 NSCLC
RPMI-8226 leukemia = system: RPMI-8226 leukemia
OVCAR-5 ovarian = system: OVCAR-5 ovarian
A498 renal = system: A498 renal
SK-MEL-2 melanoma = system: SK-MEL-2 melanoma
DMS 114 small cell lung = system: DMS 114 small cell lung
MALME-3M melanoma = system: MALME-3M melanoma
MOLT-4 leukemia = system: MOLT-4 leukemia
SNB-78 CNS = system: SNB-78 CNS
OVCAR-3 ovarian = system: OVCAR-3 ovarian
CCRF-CEM leukemia = system: CCRF-CEM leukemia
RXF 393 renal = system: RXF 393 renal
HL-60(TB) leukemia = system: HL-60(TB) leukemia

With `CN(C)CCNC(=O)c1ccc(Cl)c2c(Nc3ccc(S(N)(=O)=O)cc3)c3ccccc3nc12` the TGI (HOP-92 NSCLC) was 8.54 µM, the TGI (NCI-H460 lung) was 7.28 µM and the TGI (HOP-18 NSCLC) was 5.92 µM. The TGI (SK-OV-3 ovarian) was 10.1 µM, the TGI (HT29 colon) was 6.41 µM and the TGI (DLD-1 colon) was 8.85 µM. For the same compound, the TGI (HCT-15 colon) was 15.5 µM, the TGI (ACHN renal) was 10.9 µM and the TGI (UACC-257 melanoma) was 12.7 µM. It also gave a TGI (U251 CNS) of 14.1 µM, a TGI (CAKI-1 renal) of 17.1 µM and a TGI (HCC-2998 colon) of 14.8 µM. It also gave a TGI (786-0 renal) of 9.2 µM, a TGI (SK-MEL-5 melanoma) of 11.8 µM and a TGI (LOX IMVI melanoma) of 2.35 µM. It also gave a TGI (UO-31 renal) of 11 µM, a TGI (SNB-19 CNS) of 14.5 µM and a TGI (SK-MEL-28 melanoma) of 9.38 µM. The TGI (KM12 colon) was 5.12 µM, the TGI (NCI-H23 lung) was 11.6 µM and the TGI (OVCAR-8 ovarian) was 6.84 µM. The TGI (M14 melanoma) was 10.7 µM, the TGI (SR leukemia) was > 100 µM and the TGI (SF-539 CNS) was 4.79 µM. It also gave a TGI (XF 498 CNS) of 2.86 µM, a TGI (K-562 leukemia) of 11.4 µM and a TGI (DMS 273 small cell lung) of 8.09 µM. For the same compound, the TGI (TK-10 renal) was 13.6 µM, the TGI (RXF-631 renal) was 11.6 µM and the TGI (LXFL 529 NSCLC) was 11.2 µM. It also gave a TGI (SNB-75 CNS) of 4.72 µM, a TGI (SW-620 colon) of 2.52 µM and a TGI (SN12C renal) of 10.1 µM. The TGI (EKVX NSCLC) was 17.7 µM, the TGI (SF-268 CNS) was 13.8 µM and the TGI (A549 NSCLC) was 11.9 µM. For the same compound, the TGI (NCI-H226 lung) was 4.56 µM, the TGI (COLO 205 colon) was 2.15 µM and the TGI (NCI-H522 lung) was 1.94 µM. The TGI (HCT-116 colon) was 1.71 µM, the TGI (M19-MEL melanoma) was 4.52 µM and the TGI (OVCAR-4 ovarian) was 6.22 µM. For the same compound, the TGI (SF-295 CNS) was 15.3 µM, the TGI (UACC-62 melanoma) was 3.05 µM and the TGI (KM20L2 colon) was 13.4 µM. For the same compound, the TGI (IGROV1 ovarian) was 16.5 µM, the TGI (HOP-62 NSCLC) was 21.6 µM and the TGI (RPMI-8226 leukemia) was 29.1 µM. It also gave a TGI (OVCAR-5 ovarian) of 8.48 µM, a TGI (A498 renal) of 13.4 µM and a TGI (SK-MEL-2 melanoma) of 4 µM. For the same compound, the TGI (DMS 114 small cell lung) was 4.63 µM and the TGI (MALME-3M melanoma) was 12.5 µM.

In the case of `COC(=O)C(=O)C(C(=O)C=C(C)C)C(=O)C(=O)Nc1cccc(C(C)=O)c1` (stereo unspecified), the TGI (NCI-H460 lung) is reported as > 100 µM, the TGI (HOP-18 NSCLC) is reported as > 100 µM and the TGI (SK-OV-3 ovarian) is reported as > 100 µM. The TGI (HT29 colon) was > 100 µM, the TGI (DLD-1 colon) was > 100 µM and the TGI (HCT-15 colon) was > 100 µM. For the same compound, the TGI (ACHN renal) was > 100 µM, the TGI (UACC-257 melanoma) was > 100 µM and the TGI (U251 CNS) was > 100 µM. For the same compound, the TGI (CAKI-1 renal) was > 100 µM, the TGI (MOLT-4 leukemia) was > 100 µM and the TGI (SNB-78 CNS) was > 100 µM. The TGI (HCC-2998 colon) was > 100 µM, the TGI (786-0 renal) was > 100 µM and the TGI (OVCAR-3 ovarian) was > 100 µM. For the same compound, the TGI (SK-MEL-5 melanoma) was > 100 µM, the TGI (LOX IMVI melanoma) was > 100 µM and the TGI (UO-31 renal) was > 100 µM. The TGI (SNB-19 CNS) was > 100 µM, the TGI (CCRF-CEM leukemia) was > 100 µM and the TGI (SK-MEL-28 melanoma) was > 100 µM. For the same compound, the TGI (KM12 colon) was > 100 µM, the TGI (RXF 393 renal) was > 100 µM and the TGI (NCI-H23 lung) was > 100 µM. For the same compound, the TGI (OVCAR-8 ovarian) was > 100 µM, the TGI (M14 melanoma) was > 100 µM and the TGI (SR leukemia) was > 100 µM. The TGI (SF-539 CNS) was > 100 µM, the TGI (HL-60(TB) leukemia) was > 100 µM and the TGI (XF 498 CNS) was > 100 µM. For the same compound, the TGI (K-562 leukemia) was > 100 µM, the TGI (DMS 273 small cell lung) was > 100 µM and the TGI (TK-10 renal) was > 100 µM. The TGI (RXF-631 renal) was > 100 µM, the TGI (LXFL 529 NSCLC) was > 100 µM and the TGI (SNB-75 CNS) was > 100 µM. For the same compound, the TGI (SW-620 colon) was > 100 µM, the TGI (SN12C renal) was > 100 µM and the TGI (EKVX NSCLC) was > 100 µM. The TGI (SF-268 CNS) was > 100 µM, the TGI (A549 NSCLC) was > 100 µM and the TGI (NCI-H226 lung) was > 100 µM. For the same compound, the TGI (COLO 205 colon) was > 100 µM, the TGI (NCI-H522 lung) was > 100 µM and the TGI (HCT-116 colon) was > 100 µM. For the same compound, the TGI (M19-MEL melanoma) was > 100 µM, the TGI (OVCAR-4 ovarian) was > 100 µM and the TGI (SF-295 CNS) was > 100 µM. For the same compound, the TGI (UACC-62 melanoma) was > 100 µM, the TGI (KM20L2 colon) was > 100 µM and the TGI (IGROV1 ovarian) was > 100 µM. The TGI (HOP-62 NSCLC) was > 100 µM, the TGI (RPMI-8226 leukemia) was > 100 µM and the TGI (OVCAR-5 ovarian) was > 100 µM. For the same compound, the TGI (A498 renal) was > 100 µM, the TGI (SK-MEL-2 melanoma) was > 100 µM and the TGI (DMS 114 small cell lung) was > 100 µM. For the same compound, the TGI (MALME-3M melanoma) was > 100 µM.
